Results: patent US20140336182A1, “Aurora Kinase Modulators and Method of Use” (Amgen Inc., priority 2013, published 2014)
Where two headings read alike, the source gives them in different places.

Legend:
HeLa cells = assay: HeLa cell 24 hr ploidy assay (DNA content); assay type: cell-based; conditions: average, read-out: 24h_4NPloidy EC50_IP (uM Avg)
Summary of the method: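 HeLa cells (1×10^4/well, MEM+10% FBS) cultured 24 h, treated with serially diluted compounds (0.25% DMSO final), then fixed, permeabilized and stained with Hoechst 33342 (0.5 ug/ml). Imaging quantified % 4N and >4N cells; EC50 IP and EC50 transit derived from dose curves.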

AuroraB = target: T1, AuroraB (Homo sapiens, UniProt Q96GD4); assay: AuroraB Homogeneous Time Resolved Fluorescent (HTRF) kinase assay; assay type: biochemical; conditions: average; read-out: AurB_IC50_IP (uM Avg)
T1 construct: 20 μL of AuroraB FL H is for a final volume of 41 μL; His

AuroraA-TPX2 = target: T2, AuroraA-TPX2 (Homo sapiens, UniProt O14965); assay: AuroraA-TPX2 Homogeneous Time Resolved Fluorescent (HTRF) kinase assay
T2 sequence (O14965 133-383 limits assumed): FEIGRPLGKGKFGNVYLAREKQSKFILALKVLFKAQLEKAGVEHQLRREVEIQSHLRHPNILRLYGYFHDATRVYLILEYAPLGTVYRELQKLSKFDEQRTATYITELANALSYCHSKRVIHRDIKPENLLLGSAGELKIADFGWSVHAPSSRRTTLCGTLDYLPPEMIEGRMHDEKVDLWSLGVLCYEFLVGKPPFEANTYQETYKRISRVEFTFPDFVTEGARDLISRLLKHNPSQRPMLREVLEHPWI
T2 sequence (Q9ULW0 1-43 partner limits assumed): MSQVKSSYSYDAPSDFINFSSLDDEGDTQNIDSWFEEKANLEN

[1] = read-out: AurA_IC50_IP (uM Avg), average
[2] = Homo sapiens, HeLa, HeLa cells, 4N ploidy

T1 sequence (Q96GD4 whole entry): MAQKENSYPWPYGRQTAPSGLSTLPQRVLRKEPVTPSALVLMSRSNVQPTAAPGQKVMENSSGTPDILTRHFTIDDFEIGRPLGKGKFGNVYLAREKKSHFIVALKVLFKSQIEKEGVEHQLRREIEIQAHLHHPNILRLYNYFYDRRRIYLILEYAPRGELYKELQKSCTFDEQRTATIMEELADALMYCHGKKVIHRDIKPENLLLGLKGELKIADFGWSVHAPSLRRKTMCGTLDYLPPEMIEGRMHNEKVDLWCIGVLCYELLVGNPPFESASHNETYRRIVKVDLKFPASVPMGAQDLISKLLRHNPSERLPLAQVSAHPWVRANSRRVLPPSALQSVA

Compound	EC50 (HeLa cells; [2]) [µM]	also measured
N-(5-(7-methoxy-1,5-naphthyridin-4-yloxy)pyridin-2-yl)-4-phenylphthalazin-1-amine [Example 54]		EC50 (HeLa cells; HeLa cells, 4N ploidy): 0.028 µM; IC50 (AuroraB): 0.02 µM; IC50 (AuroraA-TPX2; [1]): 0.176 µM
COc1cnc2c(Sc3ccc(Nc4nnc(N5CCC(OC)CC5)c5ccccc45)cc3)ccnc2c1 [compound 520]	0.004	IC50 (AuroraB): 0.017 µM; IC50 (AuroraA-TPX2): 0.027 µM
Fc1cc(Nc2nnc(-c3ccc(Cl)cc3)c3ccccc23)ccc1Oc1ccnc2ccccc12 [compound 244]	0.04	IC50 (AuroraB): 0.003 µM; IC50 (AuroraA-TPX2): 0.048 µM
COc1ccc2c(Cc3ccc(Nc4nnc(-c5ccccc5)c5ccccc45)cc3)ccnc2c1 [Example 53, N-(4-((7-methoxyquinolin-4-yl)methyl)phenyl)-4-phenylphthalazin-1-amine]	0.105	IC50 (AuroraB): 0.003 µM; IC50 (AuroraA-TPX2; [1]): 0.153 µM
4-(4,5-dimethylthiophen-2-yl)-N-(4-(7-methoxy-1,5-naphthyridin-4-yloxy)phenyl)phthalazin-1-amine [Example 34]		EC50 (HeLa cells; HeLa cells, 4N ploidy): 0.062 µM; IC50 (AuroraB): 0.01 µM; IC50 (AuroraA-TPX2; [1]): 0.013 µM
COc1cnc2c(Oc3ccc(Nc4nnc(-c5ccc6[nH]ccc6c5)c5ccccc45)cc3)ccnc2c1 [compound 167]	0.027	
N#Cc1ccc2c(Sc3ccc(Nc4nnc(-c5ccc(Cl)cc5)c5ccccc45)cc3)ccnc2c1 [compound 248, 4-((4-((4-(4-chlorophenyl)-1-phthalazinyl)amino)phenyl)thio)-7-quinolinecarbonitrile]	0.022	
COc1cnc2c(Sc3ccc(Nc4nnc(-c5ccc(C)c(OC)c5)c5ccccc45)cc3)ccnc2c1 [compound 529]	0.006	
COc1cnc2c(Oc3ccc(Nc4nnc(-c5ccc(N6CCCCC6)cc5)c5ccccc45)cc3)ccnc2c1 [compound 198]	0.399	
COc1cc(OC)c2c(Oc3ccc(Nc4nnc(-c5cc(C)cs5)c5ccccc45)cc3)ccnc2c1 [compound 441]	0.008	
COc1ccc(-c2nnc(Nc3ccc(Sc4ccnc5cc(OC)cnc45)cc3)c3ccccc23)cc1 [compound 357]	0.007	
COc1cnc2c(Oc3ccc(Nc4nnc(-c5ccccc5)c5ccsc45)cc3)ccnc2c1 [compound 218, N-(4-((7-(methyloxy)-1,5-naphthyridin-4-yl)oxy)phenyl)-4-phenylthieno[2,3-d]pyridazin-7-amine]	0.061	
COc1ccc2c(Sc3ccc(Nc4nnc(-c5ccccc5)c5ccccc45)cc3)ccnc2c1 [compound 331]	0.021	
Cc1ccc(-c2nnc(Nc3ccc(Sc4ccnc5ccoc45)cc3)c3ccccc23)cc1N [compound 479]	0.009	
COc1cnc2c(Oc3ccc(Nc4nnc(N5CCN(S(C)(=O)=O)CC5)c5ccccc45)cc3)ccnc2c1 [compound 607]	0.482	
COc1cnc2c(Oc3ccc(Nc4nnc(-c5cc(CO)cs5)c5ccccc45)cc3)ccnc2c1 [Example 407, (5-(4-(4-(7-Methoxy-1,5-naphthyridin-4-yloxy)phenylamino)phthalazin-1-yl)thiophen-3-yl)methanol]	0.012	
O=c1ccc2nccc(Sc3ccc(Nc4nnc(-c5ccc(Cl)cn5)c5ccccc45)cc3)c2[nH]1 [Example 405, 8-(4-(4-(5-Chloropyridin-2-yl)phthalazin-1-ylamino)phenylthio)-1,5-naphthyridin-2(1H)-one]	0.036	
COc1cnc2c(Oc3ccc(Nc4nnc(-c5ccc6c(c5)OCCN6C)c5ccccc45)cc3)ccnc2c1 [compound 157]		EC50 (HeLa cells; Homo sapiens, HeLa, 4N ploidy): 0.028 µM
COc1cnc2c(Sc3ccc(Nc4nnc(N5CCC(N6CCCC6)CC5)c5ccccc45)cc3)ccnc2c1 [compound 538]	0.178	
FC(F)(F)Oc1ccc2c(Oc3ccc(Nc4nnc(-c5ccc(Cl)cc5)c5ccccc45)cc3)ccnc2c1 [compound 498]	0.078	
COc1cc2ncnc(Oc3ccc(Nc4nnc(-c5cc(C)cs5)c5ccccc45)cc3)c2cc1OC [compound 153]		EC50 (HeLa cells; Homo sapiens, HeLa, 4N ploidy): 0.001 µM

Compound	EC50 (HeLa cells; [2]) [µM]	also measured
Fc1cc(F)c2c(Sc3ccc(Nc4nnc(-c5ccccc5)c5ccccc45)cc3)ccnc2c1 [compound 311]	0.055	
COCc1cc(-c2ccccc2)nnc1Nc1ccc(Oc2ccnc3cc(OC)cnc23)cc1 [compound 593]	> 1.2	
COc1cccc(-c2nnc(Nc3ccc(Oc4ccnc5cc(OC)cnc45)cc3)c3ccccc23)c1 [compound 139]		EC50 (HeLa cells; Homo sapiens, HeLa, 4N ploidy): 0.057 µM
COc1cnc2c(Oc3ccc(Nc4nnc(-c5ncco5)c5ccccc45)cc3)ccnc2c1 [compound 200]	0.314	
COCCOc1cc2nccc(Oc3ccc(Nc4nnc(-c5ccccc5)c5ccccc45)cc3)c2cc1OC [Example 393, N-(4-(6-Methoxy-7-(2-methoxyethoxy)quinolin-4-yloxy)phenyl)-4-phenylphthalazin-1-amine]	0.001	
Cn1cncc1-c1cc2nccc(Oc3ccc(Nc4nnc(-c5ccc(Cl)cc5)c5ccccc45)cn3)c2s1 [compound 267]	0.013	
N#Cc1ccc2c(Oc3ccc(Nc4nnc(-c5ccccc5)c5ccccc45)cn3)ccnc2c1 [compound 174]	≥ 1.2	
COc1cnc2c(Sc3ccc(Nc4nnc(-c5ccc6c(c5)OCO6)c5ccccc45)cc3F)ccnc2c1 [compound 522]	0.001	
Cc1cc2nccc(Sc3ccc(Nc4nnc(-c5ccc(Cl)cn5)c5ccccc45)cc3)c2s1 [compound 560]	0.023	
COc1cnc2c([S+]([O-])c3ccc(Nc4nnc(-c5ccc(F)cc5)c5ccccc45)cc3)ccnc2c1 (stereo not shown) [Example 410, 4-(4-fluorophenyl)-N-(4-(7-methoxy-1,5-naphthyridin-4-ylsulfinyl)phenyl)phthalazin-1-amine]		EC50 (HeLa cells; Homo sapiens, HeLa, HeLa cells): 0.26 µM
COc1cnc2c(Sc3ccc(Nc4nnc(-c5ccc(C)nc5)c5ccccc45)cc3)ccnc2c1 [compound 588]	0.004	
COc1cnc2c(Oc3ccc(Nc4nnc(-c5cc(C)cs5)c5ccccc45)cc3OC)ccnc2c1 [compound 567]	0.227	
COc1cc(F)cc2nccc(Sc3ccc(Nc4nnc(-c5ccc(Cl)cc5)c5ccccc45)cc3)c12 [compound 438]	0.016	
c1ccc(-c2nnc(Nc3ccc(Oc4ccnc5cc(-c6ccoc6)ccc45)cc3)c3ccccc23)cc1 [compound 343]	0.025	
COc1cnc2c(Sc3ccc(Nc4nnc(NCCCSC)c5ccccc45)cc3)ccnc2c1 [compound 508]	0.072	
Cc1csc(-c2nnc(Nc3ccc(Oc4ncnc5ccccc45)cc3)c3ccccc23)c1 [compound 568]	0.034	
COc1cccc(-c2nnc(Nc3ccc(Sc4ccnc5ccccc45)cc3)c3ccccc23)n1 [compound 327]	0.017	
COc1cnc2c(Oc3ccc(Nc4nnc(-c5ccc(Cl)cc5C)c5ccccc45)cc3)ccnc2c1 [compound 233]	0.6	
Cc1csc(-c2nnc(Nc3ccc(Sc4ccnc5cccnc45)cc3)c3ccccc23)c1 [compound 336]	0.001	
N#Cc1cc2nccc(Sc3ccc(Nc4nnc(-c5ccc(Cl)cc5)c5ccccc45)cc3)c2s1 [compound 351]	0.053	
Cc1ccc(-c2nnc(Nc3ccc(Oc4ccnc5cc(C#N)ccc45)cc3)c3ccccc23)nc1 [compound 122]		EC50 (HeLa cells; Homo sapiens, HeLa, 4N ploidy): 0.053 µM
